Test results as given in patent US20190274974A1, “Treatment of Pain Associated with Trigeminal Neuralgia” (priority 2011, published 2019).
Entries after “also recorded” stand apart in the source; their conditions may differ.

What was measured:
[1] = human, in vivo; cited from earlier work
CCI-ION rats = format: in vivo, rat
Protocol: Rats are anaesthetized with sodium pentobarbital (50 mg/kg i.p.). Unilateral CCI-ION is performed under direct visual control using a Zeiss microscope (10-25×) essentially as described by Vos et al (Vos B P, Strassman A M, Maciewicz R J (1994), J. Neurosci. 14: 2708-2723). Briefly, the head is fixed in a Horsley-Clarke stereotaxic frame and a midline scalp incision is made, exposing skull and nasal bone. The edge of the orbit, formed by the maxillary, frontal, lacrimal, and zygomatic bones, is dissected free. The orbital contents are gently deflected to give access to the infraorbital nerve which is dissected free at its most rostral extent in the orbital cavity, just caudal to the infraorbital foramen. Only 5 mm of the nerve can be freed (Vos et al.), providing the space for placement of two chromic catgut (5-0) ligations tied loosely (with about 2 mm spacing) around it. […] Finally, scalp incision is closed using silk sutures (4-0). In sham-operated rats, the ION is exposed using the […] procedure, but is not ligated.
Mechanical sensitivity is determined with a graded series of eleven von Frey filaments (Bioseb, Bordeaux, France). The filaments produce a bending force of 0.07, 0.16, 0.40, 0.60, 1.00, 2.00, 4.00, 6.00, 8.00, 10.00 and 12.00 g, respectively. The stimuli are applied within the ION territory (vibrissae pad) three times at the nerve-injured side and then at the contralateral side for a total of 6 applications of each filament per rat, always beginning with the filament producing the lowest force. The von Frey filaments are applied at least 3 seconds after the rats returned to their initial resting state. For each session, the complete series of von Frey filaments is tested in increasing force order.
The latter responses represent the highest scores in the rank-ordered response scoring system initially described by Vos et al. The minimal force filament causing at least one among these responses (to at least 2 out of the 3 an each side) allows determination of the mechanical response threshold. The 12.00 g filament is the cut-off threshold (no tissue-injury occurs at this pressing force).
For studying the effects of acute treatment with tapentadol in CCI-ION rats, tapentadol (1 or 10 mg/kg i.p.) or its vehicle (0.9% NaCl i. p.) was injected acutely 14 days after surgery. Sham-operated rats were treated in parallel. Pressure threshold values to trigger nocifensive responses to von Frey filaments application onto the plantar surface of ipsilateral hindpaw were determined at various times after acute injection of tapentadol or saline. Cut-off was fixed at 12 g pressure.
For studying the effects of subchronic treatment with tapentadol in CCI-ION rats, starting on day 16 (Time=D) after surgery, they received i.p. injections of tapentadol (10 mg/kg, twice daily, at 10:00 AM and 6:00 PM) or saline (at the same day times as the drug) for four days. On the following day (day 20 after surgery), both tapentadol- and saline-pretreated CCI-SN rats were i.p. injected with Tapentadol (10 mg/kg; Time=0) and then subjected to von Frey filaments' test applied to ipsilateral hindpaw for determination of pressure threshold values at various times thereafter.
14 days after CCI-ION surgery, rats were injected with reboxetine (10 mg/kg i.p.) or its vehicle (0.9% NaCl) followed, 15 min later, by morphine (3 mg/kg s.c.) or its vehicle (0.9% NaCl) and subjected to von Frey filament tests for the following 4 hours. Sham-operated rats were treated in parallel.

[2] = test system: mRNA encoding ATF3, IL-6, BDNF and iNOS; experiment: Real-time qRT-PCR of mRNA levels in ganglia and central tissues of CCI-ION rats; format: in vivo, rat; conditions: subchronic 10 mg/kg i.p. twice daily; ipsilateral trigeminal ganglion and spinal nucleus of the trigeminal nerve; day 20
CCI-SN rats = experiment: Randall-Selitto test in CCI-SN rats; format: in vivo, rat; conditions: 10 mg/kg i.p., acute
Protocol: Rats are anaesthetized with sodium pentobarbital (50 mg/kg i.p.). Unilateral CCI-SN is performed under direct visual control using a Zeiss microscope (10-25×) essentially as described by Bennett and Xie (G. J. Bennett et al., Pain, 33 (1988) 87-107).
Pain is produced by applying increasing pressure (0-450 g/mm^2) with a punch (0.2 mm tip diameter) on the rat's hind paw. The measured value to be determined is the pressure at which either a hindpaw withdrawal response or a vocalisation reaction of the animal occurs.
Tapentadol (10 mg/kg i.p.) or its vehicle (0.9% NaCl i. p.) was injected in CCI-SN rats acutely 14 days after surgery. Pressure threshold values to trigger hindpaw withdrawal (A) or vocalization (B) were determined using the Randall-Selitto test at various times after acute i.p. administration (Time=0) of Tapentadol or saline.
The results are summarized and depicted in FIG. 1 (A and B). Each point is the mean±S.E.M. of 3-4 independent determinations. * P<0.05 compared to pressure threshold values in the same rats before surgery (C on abscissa); Dunnett's test.

[3] = test system: mRNA encoding ATF3, IL-6, BDNF and iNOS; experiment: Real-time qRT-PCR of mRNA levels in ganglia and central tissues of CCI-SN rats; format: in vivo, rat; conditions: subchronic 10 mg/kg i.p. twice daily; ipsilateral DRG and dorsal quadrant of lumbar spinal cord; day 20
Protocol: Real-time qRT-PCR determinations were made on the 20th day after CCI-SN or sham operation. Saline or Tapentadol was administered at days 16-20 under treatment conditions according to Example 2 (subchronic treatment conditions). Rats were decapitated 4 h after the last injection on day 20, tissues were immediately dissected in the cold (0° C.) and processed for mRNA extraction and quantification as described by Latrémolière et al. (J. Neurosci. 2008, 28, 8489-8501).
mRNA levels are expressed with reference to transcript encoding the […] GaPDH (glyceraldehyde 3-phosphate dehydrogenase). Each bar is the mean±S.E.M. of 4-6 independent determinations.

[4] = biological target: recombinantly produced μ-opioid receptor (Homo sapiens, UniProt P35372); conditions: cited from earlier work
Sequence of recombinantly produced μ-opioid receptor (P35372 whole entry): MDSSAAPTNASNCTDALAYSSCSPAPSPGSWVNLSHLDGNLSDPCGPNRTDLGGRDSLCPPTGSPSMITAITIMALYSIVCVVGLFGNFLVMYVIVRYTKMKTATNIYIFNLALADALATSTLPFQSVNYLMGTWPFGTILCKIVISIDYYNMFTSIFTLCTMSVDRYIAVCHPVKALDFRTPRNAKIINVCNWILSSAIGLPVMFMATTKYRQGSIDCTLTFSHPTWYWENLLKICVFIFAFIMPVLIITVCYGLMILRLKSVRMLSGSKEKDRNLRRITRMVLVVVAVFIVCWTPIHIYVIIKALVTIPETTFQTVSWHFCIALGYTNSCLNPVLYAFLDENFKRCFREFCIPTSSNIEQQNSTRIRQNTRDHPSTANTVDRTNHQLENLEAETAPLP

For `CC[C@@H](c1cccc(O)c1)[C@@H](C)CN(C)C` [tapentadol, (−)-(1R,2R)-3-(3-dimethylamino-1-ethyl-2-methyl-propyl)-phenol], the “pain-alleviating action relative to morphine” value [1] is listed as “two to three times less”, the “time for pressure threshold values to return to saline level after the maximum” value (CCI-ION rats; 1 mg/kg i.p., acute) is listed as no more than 45 min and the “time over which the increase in pressure threshold developed” value (CCI-ION rats; 1 mg/kg i.p., acute) is listed as 45 min. For the same compound, the “increase in pressure threshold value compared to saline-treated CCI-ION rats” value (CCI-ION rats; 1 mg/kg i.p., acute, two weeks after surgery) was no more than 6 fold, the “anti-allodynic effect after subchronic pretreatment (sensitization/desensitization)” value (CCI-ION rats; 10 mg/kg i.p. twice daily for four days or saline, then 10 mg/kg i.p.) was “had the same characteristics (amplitude, duration); also recorded: neither in CCI-SN rats nor in those with CCI-ION, any sign of sensitization or desensitization” and the “duration of statistically significant anti-allodynic effect” value (CCI-ION rats; 10 mg/kg i.p., acute) was “more than two hours”. The “pressure threshold values relative to those determined prior to injection” value (CCI-ION rats; 10 mg/kg i.p., acute, 30-60 min after injection) was 15-20 fold, the “ATF3, IL-6, BDNF and iNOS mRNA levels in CCI-ION rats” value [2] was “no significant effects” and the “duration of the increase in pressure threshold values (hindpaw withdrawal and vocalization)” value (CCI-SN rats; 14 days after surgery) was “at least 60 min”. The “pressure threshold values to trigger vocalization relative to untreated healthy rats” value (CCI-SN rats; first 45 min after administration) was “+20%”, the “pressure threshold values to cause hindpaw withdrawal compared to intact healthy rats before surgery” value (CCI-SN rats; first hour after treatment) was “did not significantly differ from those determined in intact healthy rats” and the “levels of mRNA encoding ATF3, IL-6, BDNF and iNOS versus saline-treated CCI-SN rats” value [3] was “not significantly different”. The “affinity to the μ-opioid receptor, times less than that of morphine” value [4] was 18 times.
